According to patent US20100029554A1, “Composition and Methods for Treatment of Congestive Heart Failure” (Amylin Pharmaceuticals, Inc., priority 2006, published 2010):
Where a SMILES comes first, the peptide text is derived from it. Where no end group is shown, it is not given here. [ ]: non-standard residue; d: D form. Gly(octyl) = CCCCCCCC[C@H](N)C(=O)O

T1: GLP-1 receptor, endogenous in RINm5f cells (rat (RIN-m5F are called rat pancreas …, UniProt P32301 22-463))
T1 sequence (looked up): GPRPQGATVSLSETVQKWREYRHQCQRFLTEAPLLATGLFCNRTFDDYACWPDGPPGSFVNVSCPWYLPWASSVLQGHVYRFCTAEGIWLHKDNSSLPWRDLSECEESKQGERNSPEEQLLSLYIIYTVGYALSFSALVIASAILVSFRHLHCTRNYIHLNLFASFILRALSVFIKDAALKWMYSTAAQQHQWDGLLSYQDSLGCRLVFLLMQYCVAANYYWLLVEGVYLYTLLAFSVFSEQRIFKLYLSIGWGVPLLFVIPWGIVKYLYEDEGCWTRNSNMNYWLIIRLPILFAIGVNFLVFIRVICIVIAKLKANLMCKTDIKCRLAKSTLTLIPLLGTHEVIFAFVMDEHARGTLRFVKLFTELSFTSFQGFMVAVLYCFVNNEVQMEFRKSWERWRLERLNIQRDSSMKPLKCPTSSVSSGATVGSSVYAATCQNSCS


Tests used:
NH/Swiss mice = test: Glucose lowering assay; assay type: in vivo, mouse; conditions: IP, 2 nmol/kg, change in blood glucose relative to vehicle
Description: Female NH/Swiss mice (˜8-20 weeks of age), (Harlan, Indianapolis, Ind., USA), housed 3 mice per cage, are allowed ad libitum access to food and water until the start of the experiment. At two hours prior to treatment, access to food is restricted.
At the time of treatment, the tip of the tail is pricked with a needle to obtain 1 μl blood as a “pre-treatment” control blood sample. Immediately thereafter, each mouse is injected intraperitoneally (IP) with a test sample (1 nmol/kg or 2 nmol/kg) or 200 μl vehicle (10% DMSO saline). Additional blood samples are collected at 30, 60, 120, 180, and 240 minutes after injection.
Blood glucose is measured with a glucose oxidase biosensor (OneTouch® Ultra® (LifeScan, Inc., a Johnson & Johnson Company, Milpitas, Calif.)). At each time point, the effect of the test sample is expressed as the percent change in blood glucose relative to mice injected with vehicle only. Test samples and vehicle controls are also compared to their respective “pre-treatment” controls.
Significant test sample effects are identified by ANOVA (p<0.05). Where a significant difference existed, test means are compared to the control mean with Dunnett's post test using GraphPad Prism version 4.00 for Windows, GraphPad Software, San Diego Calif. USA, www.graphpad.com).

Plasma stability = assay type: in vitro ADME; conditions: 20 μg/mL in plasma, 37° C., 0-5 hours
Description: To assess stability, the compound of interest is spiked into plasma at a concentration of 20 μg/mL. It is incubated at 37° C. for 0, 1, 2 3, 4, 5 hours in triplicate. At each time point, MeOH is added to a 96 well microtiter plate and then sample is added in a ratio of 1 part sample to 4 parts MeOH to quench the digestion reaction. Samples are mixed with multi-channel pipette or liquid handler. The plate is then centrifuged for 10 minutes and placed in an autosampler kept at 10° C. Samples are then injected into a mass spectrometer (API 3000, Applied Biosystems) equipped with an autosampler (Leap HTC Pal) and HPLC pumps (Shimadzu LC-10ADVP).

[1] = test system: GLP/GIP/CT cyclase, RIN-m5F cells; test: GLP/GIP/CT Cyclase (RIN) assay; assay type: cell-based, rat; conditions: cAMP, values without **
Description: GLP/GIP/CT Cyclase (RIN) Assay
Five μl of serially diluted peptides are transferred to the 384-well assay plate. Rat pancreas insulinoma cells (RIN-m5F) are detached from a tissue culture flask with Versene and washed once in buffer. Then RIN-m5F cells are resusupended in buffer at 2.5×10^6 cells/ml. Then 10 μl cells (2.5×10^4 cells) are added to all wells of the assay plate and cells are stimulated at room temperature in the dark for 30 minutes. The reaction is terminated with 10 μl of lysis buffer and incubated at room temperature for 4 hrs in the dark. cAMP content is measured using Perkin Elmer AlphaScreen™ cAMP assay kit and results are read on a Perkin Elmer Fusion fluorometer. The assay is completed in 384-well plates at 25 microliter volumes.

[2] = target: T1, GLP-1 receptor, endogenous in RINm5f …; test: cell-based or functional assay
[3] = target: T1, GLP-1 receptor, endogenous in RINm5f …; test: 125I-GLP-1 displacement, RINm5f membranes

| Molecule | GLU LOWERING AUC240 @2 nmol/kg (NH/Swiss mice) | plasma stability as compared to native GLP-1 (Plasma stability) | plasma stability as compared to native GLP-1 (Plasma stability; second, narrower list of b152) | EC50 [1] | cAMP, CYCLASE GLP/GIP/CT (RIN) EC50 [2] | IC50 [3] |
| --- | --- | --- | --- | --- | --- | --- |
| CC[C@H](C)[C@H](NC(=O)[C@H](Cc1ccccc1)NC(=O)[C@H](CC(C)C)NC(=O)[C@H](CCCNC(=N)N)NC(=O)[C@H](C)NC(=O)[C@H](C)NC(=O)[C@H](CCC(=O)O)NC(=O)[C@H](CCC(=O)O)NC(=O)[C@H](CCC(=O)O)NC(=O)[C@H](CC(C)C)NC(=O)[C@H](Cc1ccc(O)cc1)NC(=O)[C@H](CO)NC(=O)[C@H](CO)NC(=O)[C@@H](NC(=O)[C@H](CC(=O)O)NC(=O)[C@H](CC(N)=O)NC(=O)[C@@H](NC(=O)[C@H](Cc1ccc(O)cc1)NC(=O)[C@@H](NC(=O)CNC(=O)[C@H](CCC(=O)O)NC(=O)CNC(=O)[C@@H](N)Cc1c[nH]cn1)[C@@H](C)O)[C@@H](C)O)C(C)C)C(=O)N[C@@H](CCC(=O)O)C(=O)N[C@@H](Cc1c[nH]c2ccccc12)C(=O)N[C@@H](CC(C)C)C(=O)N[C@@H](CCCCN)C(=O)N[C@@H](CCC(N)=O)C(=O)NCC(=O)NCC(=O)N1CCC[C@H]1C(=O)N[C@@H](CO)C(=O)N[C@@H](CO)C(=O)NCC(=O)N[C@@H](C)C(=O)N1CCC[C@H]1C(=O)N1CCC[C@H]1C(=O)N1CCC[C@H]1C(=O)N[C@@H](CO)C(N)=O [Cmpd 5182] | −16% | increased plasma stability | increased plasma stability |  |  |  |
| CCCCCCCC[C@H](NC(=O)[C@H](CCCCN)NC(=O)[C@H](CCCCN)NC(=O)[C@@H]1CCCN1C(=O)[C@H](CCCCN)NC(=O)CNC(=O)[C@H](CC(N)=O)NC(=O)[C@H](CCCCN)NC(=O)[C@H](CC(C)C)NC(=O)[C@H](Cc1c[nH]c2ccccc12)NC(=O)[C@H](CCC(=O)O)NC(=O)[C@@H](NC(=O)[C@H](Cc1ccccc1)NC(=O)[C@H](CC(C)C)NC(=O)[C@H](CCCNC(=N)N)NC(=O)[C@@H](NC(=O)[C@H](C)NC(=O)[C@H](CCC(=O)O)NC(=O)[C@H](CCC(=O)O)NC(=O)[C@H](CCC(=O)O)NC(=O)[C@H](C)NC(=O)[C@H](CCC(N)=O)NC(=O)[C@H](CCCCN)NC(=O)[C@H](CO)NC(=O)[C@H](CC(C)C)NC(=O)[C@H](CC(=O)O)NC(=O)[C@H](CO)NC(=O)[C@@H](NC(=O)[C@H](Cc1ccccc1)NC(=O)[C@@H](NC(=O)CNC(=O)[C@H](CCC(=O)O)NC(=O)CNC(=O)[C@@H](N)Cc1c[nH]cn1)[C@@H](C)O)[C@@H](C)O)C(C)C)[C@@H](C)CC)C(=O)N[C@@H](CCCNC(=N)N)C(=O)N[C@@H](Cc1ccc(O)cc1)C(=O)N[C@@H](CO)C(=O)O [Cmpd 5268] (H-HGEGTFTSDLSKQAEEEAVRLFIEWLKNGKPKK[Gly(octyl)]RYS-OH; N-terminus assumed) | −8% |  |  | 489 pM |  |  |
| CCCCCCCC[C@H](NC(=O)[C@H](CCCCN)NC(=O)[C@H](CCCCN)NC(=O)[C@@H]1CCCN1C(=O)[C@H](CCCCN)NC(=O)CNC(=O)[C@H](CC(N)=O)NC(=O)[C@H](CCCCN)NC(=O)[C@H](CC(C)C)NC(=O)[C@H](Cc1ccccc1)NC(=O)[C@H](CCC(=O)O)NC(=O)[C@@H](NC(=O)[C@H](Cc1ccccc1)NC(=O)[C@H](CC(C)C)NC(=O)[C@H](CCCNC(=N)N)NC(=O)[C@@H](NC(=O)[C@H](C)NC(=O)[C@H](CCC(=O)O)NC(=O)[C@H](CCC(=O)O)NC(=O)[C@H](CCC(=O)O)NC(=O)[C@H](CC(C)C)NC(=O)[C@H](CCC(N)=O)NC(=O)[C@H](CCCCN)NC(=O)[C@H](CO)NC(=O)[C@H](CC(C)C)NC(=O)[C@H](CC(=O)O)NC(=O)[C@H](CO)NC(=O)[C@@H](NC(=O)[C@H](Cc1ccccc1)NC(=O)[C@@H](NC(=O)CNC(=O)[C@H](CCC(=O)O)NC(=O)CNC(=O)[C@@H](N)Cc1c[nH]cn1)[C@@H](C)O)[C@@H](C)O)C(C)C)[C@@H](C)CC)C(=O)N[C@@H](CCCNC(=N)N)C(=O)N[C@@H](Cc1ccc(O)cc1)C(=O)N[C@@H](CO)C(=O)O [Cmpd 5269] | −14% |  |  | 1310 pM |  |  |
| CC[C@H](C)[C@H](NC(=O)[C@H](Cc1ccccc1)NC(=O)[C@H](CC(C)C)NC(=O)[C@H](CCCNC(=N)N)NC(=O)[C@@H](NC(=O)[C@H](C)NC(=O)[C@H](CCC(=O)O)NC(=O)[C@H](CCC(=O)O)NC(=O)[C@H](CCC(=O)O)NC(=O)[C@H](CC(C)C)NC(=O)[C@H](Cc1ccc(O)cc1)NC(=O)[C@H](CCC(=O)O)NC(=O)[C@@H](NC(=O)[C@@H](NC(=O)[C@H](CC(=O)O)NC(=O)[C@H](CC(N)=O)NC(=O)[C@@H](NC(=O)[C@H](Cc1ccc(O)cc1)NC(=O)[C@@H](NC(=O)CNC(=O)[C@H](CCC(=O)O)NC(=O)CNC(=O)[C@@H](N)Cc1c[nH]cn1)[C@@H](C)O)[C@@H](C)O)C(C)C)[C@@H](C)O)C(C)C)C(=O)N[C@@H](CCC(=O)O)C(=O)N[C@@H](Cc1c[nH]c2ccccc12)C(=O)N[C@@H](CC(C)C)C(=O)N[C@@H](CCCCN)C(=O)N[C@@H](CC(N)=O)C(=O)NCC(=O)NCC(=O)N1CCC[C@H]1C(=O)N[C@@H](CO)C(=O)N[C@@H](CO)C(=O)NCC(=O)N[C@@H](C)C(=O)N1CCC[C@H]1C(=O)N1CCC[C@H]1C(=O)N1CCC[C@H]1C(=O)N[C@@H](CO)C(N)=O [Cmpd 5271] | −17% | increased plasma stability |  |  |  |  |
| HGEGTFTSDLSKQLEEKAAKEFIEWLIQGGPSKEIIS-OH [Cmpd 5101] | −10% | increased plasma stability | increased plasma stability | 863 pM |  |  |
| HGEGTFTSDLVKILEAEAVRKFIEFLKN-NH2 [Cmpd 5052] |  |  |  |  | 4500 pM | 560 pM |
| HGEGTFTSDVTQQLEEEAVRLFIEWLKQGGPSSGAPPPS-NH2 [Cmpd 5099] |  |  |  |  | 1290 pM | 5000 pM |
| HGEGTFTSDLSKQAEEEAVRLFIEWLKNGKPKK[Gly(octyl)]RYS-OH (N-terminus assumed; SMILES CCCCCCCC[C@H](NC(=O)[C@H](CCCCN)NC(=O)[C@H](CCCCN)NC(=O)[C@@H]1CCCN1C(=O)[C@H](CCCCN)NC(=O)CNC(=O)[C@H](CC(N)=O)NC(=O)[C@H](CCCCN)NC(=O)[C@H](CC(C)C)NC(=O)[C@H](Cc1c[nH]c2ccccc12)NC(=O)[C@H](CCC(=O)O)NC(=O)[C@@H](NC(=O)[C@H](Cc1ccccc1)NC(=O)[C@H](CC(C)C)NC(=O)[C@H](CCCNC(=N)N)NC(=O)[C@@H](NC(=O)[C@H](C)NC(=O)[C@H](CCC(=O)O)NC(=O)[C@H](CCC(=O)O)NC(=O)[C@H](CCC(=O)O)NC(=O)[C@H](C)NC(=O)[C@H](CCC(N)=O)NC(=O)[C@H](CCCCN)NC(=O)[C@H](CO)NC(=O)[C@H](CC(C)C)NC(=O)[C@H](CC(=O)O)NC(=O)[C@H](CO)NC(=O)[C@@H](NC(=O)[C@H](Cc1ccccc1)NC(=O)[C@@H](NC(=O)CNC(=O)[C@H](CCC(=O)O)NC(=O)CNC(=O)[C@@H](N)Cc1c[nH]cn1)[C@@H](C)O)[C@@H](C)O)C(C)C)[C@@H](C)CC)C(=O)N[C@@H](CCCNC(=N)N)C(=O)N[C@@H](Cc1ccc(O)cc1)C(=O)N[C@@H](CO)C(=O)O, tested as C-terminal acid (-OH)) [Cmpd 5268] |  |  |  |  | 489 pM | 110 pM |
| HGEGTYTNDVSSYLEGQAARLFIEWLQGGPSSGAPPPS-NH2 (also: table prints an unexplained underscore after L26) [Cmpd 5183] |  |  |  |  | 210 pM | 310 pM |
